Tests used:
HIF-1α [1] = assay: HIF-1α hydroxyproline detection in U251 whole cell extracts; format: cell-based, human; conditions: U251, four hours, antibody to hydroxylated ODD region
Experimental: (§1) Protein extraction, western blot analysis, and immunocytochemistry were performed as previously described. Mouse monoclonal anti-HIF-1α antibodies were 610958 (BD Biosciences), and NB100-123 (Novus). Mouse monoclonal anti-GFP antibody was 1814460 (Roche). Mouse monoclonal anti-β-actin antibody was ab6276-100 (Abcam). Dimethyloxalylglycine was D1070 (Frontier Scientific). All other chemicals were from Sigma. Antibodies recognizing HPH homologues were from Novus biologicals and the antisera recognizing […] of HIF-1α was kindly provided by R. Freeman.
Some reactive oxygen species can also induce HIF-1α. […] Next, attention was focused on HIF-1α proline hydroxylation as a target for 2-oxoacids.

HPH [2] = assay: HPH activity in extracts of treated U251 cells (35S-pVHL pulldown); format: cell-based, human
Experimental: (§2) Human HPH-1,2,3 and VHL pcDNA3.1/V5-HIS vectors (kindly provided by R. Bruick) were used for TNT Coupled Reticulocyte Lysate in vitro transcription/translation (Promega). Cytoplasmic extract for HPH activity was made by lysing cell pellets in assay buffer (20 mM Tris, pH 7.5, 5 mM KCl, 1.5 mM MgCl2, and 1 mM DTT) at 4° C. using a homogenizer, centrifuging at 20,000 g for 15 minutes and collecting supernatant for the assay. HPH enzymatic reactions were performed as previously described using either IVT products or cell extracts. This assay, chosen for its specificity for the HPH reaction, was linear over 30 minutes. For each reaction, either 7.5 μL of IVT products or 100 μg of cell extract protein were used as source of the enzyme. Activity was measured by either quantitative scintillation counting or by autoradiography after gel electrophoresis on a 10-20% Tris Glycine gradient gel (Invitrogen).
To test this U251 cells was exposed to glucose-free Krebs buffer to either hypoxia (1% O2) or 2 mM pyruvate for four hours. Nuclear HIF-1α protein accumulation was induced by both treatments (FIG. 6A). Then the cells were either returned to 21% O2 or the pyruvate was removed by extensively washing with glucose-free Krebs buffer. […]

HIF-1α [3] = assay: HIF-1α decay after washout of inducer; format: cell-based, human; conditions: 100 μM each
Experimental: (§3) Human U87, U251, U251-HRE (20) and U373 glioma cells were cultured in Eagle's MEM medium (Mediatech). DU145 human prostate cancer cells and 022 human head and neck cancer cells were cultured in RPMI 1640 medium (Sigma). 22B Human head and neck cancer cells were cultured in high glucose DMEM (Gibco) containing 2 mM glutamine. C6 ODD-GFP rat glioma cells were cultured in high glucose DMEM with 1.5 mg/ml G418. All culture media were supplemented with 10% fetal bovine serum and 1% (v/v) penicillin/streptomycin. Rat C6 glioma cells were cultured in high glucose DMEM. For cell hypoxia treatment, the culture dishes were sealed in a modular incubator chamber, flushed with gas containing 1% O2, 5% CO2 and 94% N2 for 5 minutes, and incubated in this environment at 37° C. for indicated times.
as §1
To test this U251 cells was exposed to glucose-free Krebs buffer to either hypoxia (1% O2) or 2 mM pyruvate for four hours. Nuclear HIF-1α protein accumulation was induced by both treatments (FIG. 6A). […] HIF-1α immunoreactivity disappeared rapidly upon reoxygenation (return to 21% O2) of hypoxic cells as would be expected with the resumption of oxygen-dependent HIF-1α hydroxylation and proteolysis. […] To directly determine if the HPH activity in glioma cells was reversibly inactivated by pyruvate and oxaloacetate the ^35S-pVHL pulldown assay to measure HPH activity in extracts from cells treated for four hours with the 2-oxoacids was used. To capture the endogenous state of HPH activity, the cell extracts were first assayed without supplementation with exogenous reductants, ascorbate, or iron. […] The minimal HPH activity of extracts from pyruvate or oxaloacetate treated cells could also be restored by supplementation of the extracts with ascorbate or with exogenous ferrous iron (FeSO4) during the assay (FIG. 6D).

HIF-1α [4] = assay: Nuclear HIF-1α accumulation in human cancer cell lines (western blot); format: cell-based
Experimental: as §3, with “DU145 human prostate cancer cells and 022 human head and neck cancer cells were cultured in RPMI 1640 medium (Sigma).” left out
Protein extraction, western blot analysis, and immunocytochemistry were performed as previously described. […] Mouse monoclonal anti-β-actin antibody was ab6276-100 (Abcam). Dimethyloxalylglycine was D1070 (Frontier Scientific). All other chemicals were from Sigma.

[5] = system: labile intracellular iron pool; assay: Calcein fluorescence assay for cellular free iron; format: cell-based, human; conditions: calcein loaded U251 cells
Experimental: The ability of 2-oxoacids to chelate the labile intracellular iron pool was measured using the calcein fluorescence assay as previously described. The iron chelators desferrioxamine and bipyridyl were used as positive controls.

HPH [6] = assay: 2-Oxoglutarate: HPH binding assay; parameters: species or system human; conditions: addition of 200 μM ferrous iron
Experimental: Gel was washed four times with the indicated buffer. Analysis of HPH binding was measured by scintillation counting.

HIF-1α [7] = assay: HIF-1α accumulation in 22B head and neck cancer cells; format: cell-based, human; conditions: 22B cells, 100 μM each, last 30 minutes after 24 hours accumulation
Experimental: as §3, §1

ODD-GFP = assay: Live cell assay for oxygen-dependent degradation, ODD-GFP transfected C6 glioma cells; format: cell-based, rat; conditions: C6 cells in Krebs buffer; amino acids 0.5 mM
Experimental: as §3
Next a live cell assay for oxygen-dependent HIF-1α degradation using C6 rat glioma cells that had been stably transfected with a vector encoding the HIF-1 cc ODD region fused to GFP (ODD-GFP) was performed. The ODD-GFP protein is hydroxylated and degraded in an oxygen dependent manner similar to HIF-1α. As with HIF-1α, a basal, as well as, hypoxia-inducible accumulation of ODD-GFP has been reported.

HIF-1 = HIF-1 luciferase reporter assay in U251-HRE cells; format: cell-based, human; conditions: 2 mM 2-oxoacid, 250 μM amino acid, 8 h
HPH1, HPH2, and HPH3 = assay: HPH prolyl hydroxylation assay with in vitro translated HPHs (35S-pVHL pulldown); format: biochemical, human; conditions: in the absence of ascorbate or other reducing agents
Experimental: as §2
To determine whether HPH activity was directly modulated by pyruvate or oxaloacetate, Pro564 hydroxylation in a biotinylated HIF-1α ODD peptide by in vitro translated HPH1, HPH2, and HPH3 was examined. The ability of streptavidin beads to pull down ^35S-pVHL bound to the biotinylated peptide was used as evidence of HIF-1α ODD peptide hydroxylation. This is the most specific and sensitive assay for HPH activity. […] Such assays can also give high background values in cell extracts.

VEGF and GLUT3 = assay: RT-PCR of HIF-1 regulated genes in U87 cells; format: cell-based, human; conditions: U87, 5× the level normally found in MEM, 2 d
Experimental: Total RNA was isolated using the RNeasy kit (Qiagen). For RT-PCR, 1 μg of total RNA was used with the […] One-Step System (Invitrogen). VEGF, GLUT3, and β-Actin primers were described previously. For quantitative PCR analysis, the iQ SY BR Green Supermix and MyiQ Single-Color

HIF-1α [8] = conditions: requires conversion to pyruvate via lactate dehydrogenase (Lu et al. 2002); cited from earlier work

COC(=O)CNC(=O)C(=O)OC [DMOG, dimethyloxalylglycine]
hydroxyproline (Pro564) in induced HIF-1α (HIF-1α [1]): did not contain hydroxyproline | HPH activity in extracts of cells treated for four hours (HPH [2]; U251, 2 mM pyruvate or oxaloacetate, 1 mM DMOG, no exogenous reductants, ascorbate or iron): no loss of HPH activity

O=S(=O)([O-])[O-].[Fe+2] [Fe(II)]
HIF-1α decay following induction with pyruvate or oxaloacetate, iron in wash (HIF-1α [3]): enhancement of HIF-1α decay | decay of NO-induced HIF-1α with iron in wash (HIF-1α [3]): accelerated the decay | decay of accumulated HIF-1α after washing out DFO, iron added (HIF-1α [3]): promoted decay | HIF-1α induction by pyruvate and oxaloacetate with iron added to cultured cells (HIF-1α [4]; U251, Fe(II) 100 μM): prevented HIF-1α induction | NO induced HIF-1α accumulation (HIF-1α [4]; U251, MEM, DETA-NO 300 μM, ascorbate 100 μM, Fe(II) 100 μM, GSH 5 mM): complete inhibition | intracellular calcein fluorescence [5]: decrease in fluorescence | binding of 35S-HPH homologues to the 2-OG column (HPH [6]): doubled | accumulated (pyruvate-enhanced) HIF-1α after supplementation (HIF-1α [7]): Fe(II)>Fe(III) | accumulated (pyruvate-enhanced) HIF-1α after supplementation (HIF-1α [7]; listed as ferrous iron): diminished to a greater extent by ferrous iron than by ferric iron | HPH activity of extracts from pyruvate or oxaloacetate treated cells, extract supplemented during assay (HPH [2]; 100 μM each): restored

N[C@@H](CS)C(=O)O [cysteine]
ODD-GFP induction by pyruvate or oxaloacetate (ODD-GFP): reduced ODD-GFP induction | HRE-luciferase activity induced by pyruvate or oxaloacetate (HIF-1): lowered HRE-luciferase activity | stimulation of HIF-1α ODD hydroxylation (HPH1, HPH2, and HPH3): dose dependently stimulate HIF-1α ODD hydroxylation | HIF-1α accumulation by hypoxia or the iron chelator DFO (HIF-1α [4]; FIG. 3C, 1% O2 or 150 μM DFO): did not affect | inhibition of basal HIF-1α accumulation (HIF-1α [4]; U87, Krebs buffer reconstituted with MEM additives at concentration normally present in MEM, four hours): key amino acids responsible for inhibiting basal HIF-1α accumulation | inhibition of HIF-1α accumulation, L- vs D-isomers and dimer (HIF-1α [4]; U87, four hours, glucose-free Krebs, 1 mM pyruvate or oxaloacetate, 250 μM (FIG. 3C)): effective | HIF-1α induction by glucose, pyruvate, and oxaloacetate (HIF-1α [4]; all cell lines used in this study (data not shown)): lowered HIF-1α induction | inhibition of basal HIF-1α accumulation in complete culture media (HIF-1α [4]; amino acid raised to 5× its normal level in MEM): likely endogenous inhibitors of basal HIF-1α accumulation | basal expression of the HIF-1 regulated genes VEGF and GLUT3 (VEGF and GLUT3): lowered the basal expression

CC(O)C(=O)O (stereo not shown) [lactate]
HIF-1α accumulation induced by lactate (HIF-1α [8]): can induce HIF-1α accumulation

Reference: patent US20080045463A1, “Methods For Lowering Hif-1 Mediated Gene Expression” (priority 2004, published 2008)
